Legend:
[1] = test system: white blood cells contained in a whole blood sample; experiment: MPO-releasing effects of various surfactants on whole blood, ELISA (Examples 3 to 5); format: cell-based, human; conditions: 60 minutes on ice
Description: 10 ml of healthy human whole blood was collected using a 28 G winged intravenous injection needle (manufactured and sold by Terumo Corporation, Japan), and immediately mixed with 10 mg of EDTA-2K (manufactured and sold by Dojin Laboratories, Japan), and the resultant EDTA-containing whole blood sample was subjected to the below-described various measurements within 1 hour from the blood collection.
500 μl of the blood was put in a 2-ml Eppendorf tube, and 500 μl of a 1% (w/v) aqueous surfactant solution was added to the tube, and the resultant mixture was stirred for 2 seconds by a Vortex mixer. Subsequently, the mixture was allowed to stand for 60 minutes on ice to thereby lyze the white blood cells. After the lysis of the white blood cells, 100 μl of the mixture was taken out and added to 900 μl of a PBS solution containing dissolved therein 1% BSA (trade name: “Sigma fraction V”, manufactured and sold under the brand of SIGMA™, U.S.A.). The resultant mixture was stirred by a Vortex mixer, and then 10 μl of the mixture was taken out and diluted 2,000-fold with 1% BSA/PBS solution. The resultant diluted mixture was subjected to a measurement by ELISA.
The outline of the ELISA is as follows. A 5 μg/ml PBS solution of an anti-MPO antibody was put into the wells of a Nunc Immuno Plate (manufactured and sold by Nalge Nunc International, Denmark) in an amount of 100 μl per well. The solution in each well was sealed and subjected to a reaction for 18 hours at 4° C. thereby immobilizing the primary antibody. The wells were washed with a washing solution (0.05% Tween™ 20/PBS) and then subjected to blocking for 1 hour at room temperature by using 200 μl of a blocking solution (1% BSA/PBS), and then washed twice with the washing solution. […] The wells were washed 5 times with a washing solution, and 100 μl of a just-prepared TMB solution (manufactured and sold by Kirkegaad & Perry Laboratories, U.S.A.) was added thereto to effect a color reaction. 2 Minutes after the start of the color reaction, 100 μl of a 1 N sulfuric acid solution (manufactured and sold by Nacalai Tesque, Inc., Japan) was added to the wells to thereby terminate the reaction. Then, the absorbance at 450 nm was measured by means of a plate reader (manufactured and sold by Bio-Rad Laboratories, U.S.A.).
With respect to the measurement of the MPO concentration of the sample, MPO (manufactured and sold by Elastin Products Co., INC., U.S.A.) was added to the sample so that the final concentration of the added MPO became 5 ng/ml or 10 ng/ml, and the resultant mixture was measured with respect to the MPO concentration. From the obtained value of MPO concentration, a calibration curve for each sample was obtained. The obtained calibration curve was corrected, based on its relationship with a calibration curve obtained with respect to a standard MPO solution, and the corrected calibration curve of each sample was used to determine the MPO concentration of the whole blood. The measurement was conducted 3 times, and a mean value±standard deviation was obtained.

[2] = test system: white blood cells contained in the whole blood; experiment: Concentration of surfactant and release amount of MPO in whole blood, ELISA (Example 2); format: cell-based, human; conditions: 60 minutes on ice, mean ± SD of 3
Description: 10 ml of healthy human whole blood was collected and immediately mixed with 10 mg of EDTA-2K (manufactured and sold by Dojin Laboratories, Japan), and the resultant EDTA-containing whole blood sample was subjected to the below-described various measurements within 1 hour from the blood collection.
500 μl of the blood was put in a 2-ml Eppendorf tube, and 500 μl of an aqueous surfactant solution having a surfactant concentration of 0.1, 0.2, 0.4, 0.6, 1, 2, 4, 10 or 20% (w/v) was added to the tube, and the resultant mixture was stirred for 2 seconds by a Vortex mixer. Subsequently, the mixture was allowed to stand for 60 minutes on ice to thereby lyze the white blood cells. […] After the lysis of the white blood cells, 100 μl of the mixture was taken out and added to 900 μl of a PBS solution containing dissolved therein 1% BSA (trade name: “Sigma fraction V”, manufactured and sold under the brand of SIGMA™, U.S.A.). The resultant mixture was stirred by a Vortex mixer, and then 10 μl of the mixture was taken out and diluted 2,000-fold with 1% BSA/PBS solution. The resultant diluted mixture was subjected to a measurement by ELISA.
The outline of the ELISA is as follows. A 5 μg/ml PBS solution of a rabbit anti-human myeloperoxidase antibody (manufactured and sold by Calbiochem-Novabiochem Corporation, U.S.A.)(hereinafter, frequently referred to as “anti-MPO antibody”) was put into the wells of a Nunc Immuno Plate (manufactured and sold by Nalge Nunc International, Denmark) in an amount of 100 μl per well. The solution in each well was sealed and subjected to a reaction for 18 hours at 4° C. thereby immobilizing the primary antibody. The wells were washed with a washing solution (0.05% Tween™ 20/PBS) and then subjected to blocking for 1 hour at room temperature by using 200 μl of a blocking solution (1% BSA/PBS), and then washed twice with the washing solution. Then, the above-obtained diluted mixture (blood sample which had been treated with a surfactant and then diluted) was put in the wells in an amount of 100 μl per well, and subjected to a reaction for 2 hours at room temperature. Then, the wells were washed 3 times with the washing solution, and a 5 μg/ml solution of an anti-MPO antibody labeled with horseradish peroxidase (hereinafter referred to as “HRP”) was put in the wells in an amount of 100 μl per well, and subjected to a reaction for 1 hour at room temperature. As the above-mentioned HRP-labeled anti-MPO antibody, an anti-human MPO antibody (manufactured and sold by Calbiochem-Novabiochem Corporation, U.S.A.) which had been labeled with HRP Grade IV (manufactured and sold under the brand of SIGMA™, U.S.A.) was employed. The labeling was performed by the method described in Analytical Biochemistry, 132, 68-73 (1983). The wells were washed 5 times with the washing solution, and 100 1 μl of a just-prepared TMB solution (manufactured and sold by Kirkegaad & Perry Laboratories, U.S.A.) was added thereto to effect a color reaction. 2 Minutes after the start of the color reaction, 100 μl of a 1 N sulfuric acid solution (manufactured and sold by Nacalai Tesque, Inc., Japan) was added to the wells to thereby terminate the reaction. Then, the absorbance at 450 nm was measured by means of a plate reader (manufactured and sold by Bio-Rad Laboratories, U.S.A.). The measurement was conducted 3 times, and a mean value±standard deviation was obtained.

[3] = test system: white blood cells in whole blood; conditions: nonionic surfactants, dependence on HLB value
Description: Blood collection, treatment with a surfactant, and ELISA were performed in the same manner as in Example 3 in order to measure the MPO-releasing effects of the below-mentioned various surfactants.
These surfactants were individually dissolved in purified water (manufactured and sold by Kyoei Seiyaku Co., Japan) so as to obtain 10% or 2% (w/v) aqueous solutions. Before use in the testing, each of the aqueous solutions was further diluted to obtain a 1% (w/v) aqueous solution, and the 1% (w/v) aqueous solution was used in the testing within 15 hours from the preparation thereof. As a control, purified water (manufactured and sold by Kyoei Seiyaku Co., Japan) was used.

[4] = Example 5 (Table 5): 500 μl blood + 500 μl 1% (w/v) surfactant solution, mean ± SD
[5] = Example 3 (Table 3): 500 μl blood + 500 μl 1% (w/v) surfactant solution, mean ± SD of 3
[6] = Example 4 (Table 4): 500 μl blood + 500 μl 1% (w/v) surfactant solution, mean ± SD
[7] = concentration of surfactant 0.05 % (w/v)
[8] = concentration of surfactant 0.10 % (w/v)
[9] = concentration of surfactant 0.20 % (w/v)
[10] = concentration of surfactant 0.30 % (w/v)
[11] = concentration of surfactant 0.50 % (w/v)
[12] = concentration of surfactant 1.00 % (w/v)
[13] = concentration of surfactant 2.00 % (w/v)
[14] = concentration of surfactant 5.00 % (w/v)
[15] = concentration of surfactant 10.00 % (w/v)

CCCCCCCCCCCC[N+](C)(C)C.[Br-] [DTAB, n-Dodecyltrimethylammonium Bromide]
MPO concentration of whole blood [1, 4]: 8.05 ± 0.64 µg/mL

CCCCCCCCCCCCCCCC[N+](C)(C)C.[Br-] [HTAB, Hexadecyltrimethylammonium Bromide]
MPO concentration of whole blood [1, 5]: 5.80 ± 1.41 µg/mL
MPO concentration of whole blood [1, 6]: 9.58 ± 0.53 µg/mL
MPO concentration of whole blood [1, 4]: 7.15 ± 2.69 µg/mL

CCCCCCCCCCCCCCCC[N+](C)(C)C.[Cl-] [HTAC, Hexadecyltrimethylammonium Chloride]
MPO concentration of whole blood [1, 6]: 10.93 ± 0.82 µg/mL
MPO concentration of whole blood [1, 4]: 7.35 ± 0.28 µg/mL

CCCCCCCCCCCC[n+]1ccccc1.[Cl-] [LPC, 1-Laurylpyridinium Chloride]
MPO concentration of whole blood [1, 6]: 9.58 ± 1.39 µg/mL
MPO concentration of whole blood [1, 4]: 7.57 ± 0.60 µg/mL

CCCCCCCCCCCCCCCCCC[N+](C)(C)C.[Cl-] [OTAC, Octadecyltrimethylammonium Chloride]
MPO concentration of whole blood [1, 4]: 7.47 ± 0.38 µg/mL

CCCCCCCCCCCCCC[N+](C)(C)C.[Br-] [TTAB, Tetradecyltrimethylammonium Bromide]
MPO concentration of whole blood [1, 6]: 9.33 ± 1.30 µg/mL
MPO concentration of whole blood [1, 4]: 8.08 ± 0.11 µg/mL

α-(4-Nonylphenyl)-ω-hydroxypoly(oxy-1,2-ethanediyl) [Nissan Nonion NS-208.5]
MPO concentration of whole blood [1, 5]: 6.20 ± 1.51 µg/mL

α-[4-(1,1,3,3,-Tetramethylbutyl)phenyl]-ω-hydroxypoly(oxy-1,2-ethanediyl) [Igepal ™ CA630]
Release amount of MPO in whole blood [2, 7]: 0.103 ± 0.005 Abs. 450 nm
Release amount of MPO in whole blood [2, 8]: 0.156 ± 0.009 Abs. 450 nm
Release amount of MPO in whole blood [2, 9]: 0.205 ± 0.007 Abs. 450 nm
Release amount of MPO in whole blood [2, 10]: 0.211 ± 0.008 Abs. 450 nm
Release amount of MPO in whole blood [2, 11]: 0.249 ± 0.002 Abs. 450 nm
Release amount of MPO in whole blood [2, 12]: 0.220 ± 0.008 Abs. 450 nm
Release amount of MPO in whole blood [2, 13]: 0.208 ± 0.003 Abs. 450 nm
Release amount of MPO in whole blood [2, 14]: 0.199 ± 0.018 Abs. 450 nm
Release amount of MPO in whole blood [2, 15]: 0.227 ± 0.006 Abs. 450 nm
MPO concentration of whole blood [1, 5]: 6.23 ± 1.42 µg/mL

α-[4-(1,1,3,3,-Tetramethylbutyl)phenyl]-ω-hydroxypoly(oxy-1,2-ethanediyl) [Triton ™ X-114]
Release amount of MPO in whole blood [2, 7]: 0.120 ± 0.026 Abs. 450 nm
Release amount of MPO in whole blood [2, 8]: 0.131 ± 0.016 Abs. 450 nm
Release amount of MPO in whole blood [2, 9]: 0.207 ± 0.004 Abs. 450 nm
Release amount of MPO in whole blood [2, 10]: 0.198 ± 0.003 Abs. 450 nm
Release amount of MPO in whole blood [2, 11]: 0.259 ± 0.007 Abs. 450 nm
Release amount of MPO in whole blood [2, 12]: 0.240 ± 0.006 Abs. 450 nm
Release amount of MPO in whole blood [2, 13]: 0.245 ± 0.015 Abs. 450 nm
Release amount of MPO in whole blood [2, 14]: 0.239 ± 0.002 Abs. 450 nm
Release amount of MPO in whole blood [2, 15]: 0.243 ± 0.005 Abs. 450 nm
MPO concentration of whole blood [1, 5]: 7.44 ± 1.81 µg/mL
Efficiency for releasing intrinsic MPO from the white blood cells (in words) [3]: high activity to release intrinsic MPO
